These results are taken from patent publication US12687539B2 (priority 2019, dated 2026).

One series has as its system rat. The settings on record: in vivo; cited from earlier work.
Series [1] has as its system DAS5G11E7 monoclonal antibody. Type of series: binding, mouse.

Consider `CC(=O)OC[C@]12CCC(C)=C[C@H]1O[C@@H]1[C@H](O)[C@@H](OC(C)=O)[C@@]2(C)[C@]12CO2` [DAS, diacetoxyscirpenol], for which the LDS in the series on rat is reported as 0.75 mg/kg. Further, in series [1], the Cross reactivity worked out at 100%.
